Experimental findings from PubChem BioAssay AID328 (DTP/NCI, 2004) are described below.

This experiment has as its system BDF1 mice, P388 leukemia ip, median survival T/C. Kind of experiment: NCI In Vivo Anticancer Drug Screen. Data for tumor model P388 Leukemia (intraperitoneal) in B6D2F1 (BDF1) mice. The settings on record: endpoint: median survival time, higher = longer survival. In a few lines:
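In tumour-bearing mice, survival after compound treatment is set against the vehicle group and given as a quotient.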

The mark [1] stands for this setting: dose: 12.5 mg/kg/injection, schedule: Q04DX003 (ip), vehicle: Klucel (hydroxypropylcellulose) (HPC).
The mark [2] stands for this setting: dose: 50.0 mg/kg/injection, schedule: Q04DX003 (ip), vehicle: Klucel (hydroxypropylcellulose) (HPC).
Setting [3] is: dose: 100.0 mg/kg/injection, schedule: Q04DX003 (ip), vehicle: Klucel (hydroxypropylcellulose) (HPC).
Setting [4] is: dose: 50.0 mg/kg/injection, schedule: Q01DX009 (ip), vehicle: saline with Tween-80.
Where [5] appears, read: dose: 100.0 mg/kg/injection, schedule: Q01DX009 (ip), vehicle: saline with Tween-80.
Setting [6] is: dose: 200.0 mg/kg/injection, schedule: Q04DX003 (ip), vehicle: Klucel (hydroxypropylcellulose) (HPC).
[7] abbreviates: dose: 200.0 mg/kg/injection, schedule: Q01DX009 (ip), vehicle: saline with Tween-80.
[8] abbreviates: dose: 12.5 mg/kg/injection, schedule: Q01DX009 (ip), vehicle: Klucel (hydroxypropylcellulose) (HPC).
Where [9] appears, read: dose: 400.0 mg/kg/injection, schedule: Q04DX003 (ip), vehicle: Klucel (hydroxypropylcellulose) (HPC).

The structures appear in SMILES notation. Several values for one entry are separate records, joined by “and”; a condition that tells them apart may be missing. Equal entries are not always repeated. Toxic doses and inconclusive results are not listed.

As for `Nc1cc(NC(=O)c2ccc(Cl)cc2)ccc1S(=O)(=O)O`, the T/C reads like this: (dose: 3.12 mg/kg/injection, schedule: Q01DX009 (ip), vehicle: saline) 117 % of control; (dose: 6.25 mg/kg/injection, schedule: Q01DX009 (ip), vehicle: saline) 99 % of control; (dose: 6.25 mg/kg/injection, schedule: Q04DX003 (ip), vehicle: Klucel (hydroxypropylcellulose) (HPC)) 95 % of control; (dose: 12.5 mg/kg/injection, schedule: Q01DX009 (ip), vehicle: saline) 90 % of control; under setting [1], 106 % of control; (dose: 25.0 mg/kg/injection, schedule: Q01DX009 (ip), vehicle: saline) 87 % of control. Further, the T/C was 93 % of control (dose: 25.0 mg/kg/injection, schedule: Q04DX003 (ip), vehicle: Klucel (hydroxypropylcellulose) (HPC)); 98 % of control under setting [2]; 97 % of control under setting [3].

Turning to `Nc1nc(N)c(N=O)c(N)n1`, the T/C reads like this: (dose: 100.0 mg/kg/injection, schedule: Q01DX009 (ip), vehicle: saline) 150 % of control; (dose: 200.0 mg/kg/injection, schedule: Q01DX009 (ip), vehicle: saline) 111 % of control; (dose: 400.0 mg/kg/injection, schedule: Q01DX009 (ip), vehicle: saline) 106 % of control.

With `CCOc1c([N+](=O)[O-])cc([N+](=O)[O-])c2ccccc12`, the T/C was 96 % of control (dose: 25.0 mg/kg/injection, schedule: Q01DX009 (ip), vehicle: saline with Tween-80); 96 % of control under setting [4]; 93 % of control under setting [5].

Turning to `COc1cc(OC)cc(C(N)=O)c1`, the T/C under setting [2] is 100 % of control, the T/C under setting [3] is 95 % of control and the T/C under setting [6] was 100 % of control.

For the molecule `O=C1/C(=C/c2ccc(Cl)cc2)SC(=S)N1CCCN1CCOCC1`, the T/C under setting [4] is 91 % of control, the T/C under setting [5] was 88 % of control and the T/C under setting [7] is 91 % of control.

Turning to `CC1(c2ccc(Cl)cc2)NC(=O)NC1=O` (stereo not given), the T/C reads like this: (dose: 200.0 mg/kg/injection, schedule: Q04DX003 (ip), vehicle: saline sonified) 91 % of control; (dose: 400.0 mg/kg/injection, schedule: Q04DX003 (ip), vehicle: saline sonified) 87 % of control.

For the molecule `CCCOC(=O)C1(N)CCCC1`, the T/C under setting [5] is 100 % of control and the T/C under setting [7] is 90 % of control.

As for `OC(CN1CC1)c1ccccc1` (stereo not given), the T/C by setting is: (dose: 20.0 mg/kg/injection, schedule: Q04DX003 (ip), vehicle: saline) 90 % of control; (dose: 40.0 mg/kg/injection, schedule: Q04DX003 (ip), vehicle: saline) 95 % of control; (dose: 80.0 mg/kg/injection, schedule: Q04DX003 (ip), vehicle: saline) 100 % of control.

For `Nc1nc(=S)c2[nH]c(N=Nc3ccc(S(=O)(=O)Nc4ccccn4)cc3)nc2[nH]1`, the T/C is 108 % of control under setting [8]; 91 % of control (dose: 25.0 mg/kg/injection, schedule: Q01DX009 (ip), vehicle: Klucel (hydroxypropylcellulose) (HPC)); 90 % of control (dose: 50.0 mg/kg/injection, schedule: Q01DX009 (ip), vehicle: Klucel (hydroxypropylcellulose) (HPC)); 87 % of control under setting [2]; 116 % of control under setting [3]; 104 % of control under setting [6].

Take `CC(=O)C[P+](c1ccccc1)(c1ccccc1)c1ccccc1`: where the note is “dose: 100.0 mg/kg/injection, schedule: Q01DX001 (ip), vehicle: saline”, the T/C was 109 % of control.

For the molecule `CC1=CC(=Nc2ccc(N(C)C)cc2)C=CC1=O`, the T/C by setting is: (dose: 3.13 mg/kg/injection, schedule: Q01DX009 (ip), vehicle: suspension in saline) 98 % of control; (dose: 6.25 mg/kg/injection, schedule: Q01DX009 (ip), vehicle: suspension in saline) 117 % of control; (dose: 12.5 mg/kg/injection, schedule: Q01DX009 (ip), vehicle: suspension in saline) 123 % of control; (dose: 25.0 mg/kg/injection, schedule: Q01DX009 (ip), vehicle: suspension in saline) 117 % of control.

`NC(CC[Se]CC(N)C(=O)O)C(=O)O` (stereo not given): the T/C (dose: 0.5 mg/kg/injection, schedule: Q01DX010 (ip), vehicle: saline) is 90 % of control; the T/C (dose: 1.0 mg/kg/injection, schedule: Q01DX010 (ip), vehicle: saline) is 104 % of control; the T/C (dose: 2.0 mg/kg/injection, schedule: Q01DX010 (ip), vehicle: saline) is 100 % of control; the T/C (dose: 4.0 mg/kg/injection, schedule: Q01DX010 (ip), vehicle: saline) is 104 % of control.

For the molecule `Oc1ccccc1C=NCCN1CC1.Oc1ccccc1C=NCCN1CC1.[Ni+2]`, the T/C is 101 % of control (dose: 6.25 mg/kg/injection, schedule: Q01DX009 (ip), vehicle: Klucel (hydroxypropylcellulose) (HPC)); 101 % of control under setting [8]; 98 % of control under setting [1]; 115 % of control (dose: 25.0 mg/kg/injection, schedule: Q04DX003 (ip), vehicle: saline sonified); 122 % of control under setting [2].

For `CSC1(CC(=O)N2CCCCC2)C(=O)Nc2ccccc21` (stereo not given), the T/C is 95 % of control (dose: 50.0 mg/kg/injection, schedule: Q04DX002 (ip), vehicle: saline with Tween-80); 101 % of control (dose: 100.0 mg/kg/injection, schedule: Q04DX002 (ip), vehicle: saline with Tween-80); 95 % of control (dose: 200.0 mg/kg/injection, schedule: Q04DX002 (ip), vehicle: saline with Tween-80).

As for `OCc1cc2ccccc2cc1O`, the T/C is 90 % of control under setting [3], 109 % of control under setting [6] and 104 % of control under setting [9].

Regarding `c1ccc(-n2nc3c(c2OCCN2CCCC2)CCCc2ccccc2-3)cc1`, the T/C was 108 % of control (dose: 66.0 mg/kg/injection, schedule: Q04DX003 (ip), vehicle: saline with Tween-80); 104 % of control and 116 % of control (dose: 100.0 mg/kg/injection, schedule: Q04DX003 (ip), vehicle: saline with Tween-80).

As for `Oc1c(Cl)cc(Cl)c2cccnc12`, the T/C runs as follows: (dose: 12.5 mg/kg/injection, schedule: Q01DX010 (ip), vehicle: carboxymethylcellulose (CMC)) 104 % of control; (dose: 25.0 mg/kg/injection, schedule: Q01DX010 (ip), vehicle: carboxymethylcellulose (CMC)) 104 % of control; (dose: 50.0 mg/kg/injection, schedule: Q01DX010 (ip), vehicle: carboxymethylcellulose (CMC)) 104 % of control.

For `CN1CC=C(N2CCOCC2)CC1`, the T/C (dose: 25.0 mg/kg/injection, schedule: Q04DX003 (ip), vehicle: saline) was 120 % of control; the T/C (dose: 50.0 mg/kg/injection, schedule: Q04DX003 (ip), vehicle: saline) was 120 % of control; the T/C (dose: 100.0 mg/kg/injection, schedule: Q04DX003 (ip), vehicle: saline) was 120 % of control.

Take `CCOc1ccc(Br)cc1/C=C1\N=C(c2ccccc2)OC1=O`: the T/C reads like this: under setting [3], 95 % of control; under setting [6], 100 % of control; under setting [9], 95 % of control.
